Reference: patent publication US20100190957A1, “SPECIFIC THERAPY AND MEDICAMENT USING INTEGRIN LIGANDS FOR TREATING CANCER” (priority 2007, published 2010)
Where “and” joins values, the source holds several entries; their conditions need not be identical. Identical values can stand only once. Entries after “also recorded” stand apart in the source; their conditions may differ.

Key:
[1] = test system: U251 human glioblastoma cells; test: Rat orthotopic glioblastoma model, radiotherapy / cilengitide scheduling experiments (survival); format: in vivo, NIH rnu nude rats; design: key to Status at Date of Termination: Sick = moribund and removed from study; Healthy = indicates sampled for tissue at date shown, but alive at this point; Alive = surviving at time point shown; conditions: for Days Post Implant / Status at Date of Termination: per animal, listed as Rt + EMD; for Days Post Implant: at date of termination, plus 7 subsequent daily boluses, 4 mg/kg
Experimental: NIH rnu nude rats are anaesthetized, restrained, and injected intracerebrally 1 mm retro orbitally, 3mm to the right of the bregma and at a depth of 2.5 mm with 5×10E5 U251 human glioblastoma cells suspended in 10 ul of culture medium, using a #2701 Hamilton syringe fitted with a 26 gauge needle, essentially as previously described (Engebraaten et al., 1999). After 14 days, cilengitide (4 mg/kg) is given as an intraperitoneal bolus in PBS, at various time (8 h, 4 h, 2 h, 1 h) prior to a single treatment with single, collimated, dorsal-ventral beam of 6 MV x-rays, so that 95-100% of the central axis dose of 25 Gy hit the tumor volume (Kim et al., 1999). Each of the 7 subsequent days the animals also received an identical i.p. bolus of cilengitide. The animals are maintained under ad libitum food and drink until they become moribund, or are sampled for tissue analysis (in the t-4 and t-8 h groups, where the animals are healthy past 230 days post tumor injection). A Kaplan-Meier survival curve is calculated and plotted (FIG. 1) from the raw data (Table 1). All animals in the RT monotherapy group died by 120 d.

[2] = test system: newly diagnosed glioblastoma (GBM); test: Phase I/IIa trial of cilengitide and temozolomide with concomitant radiotherapy in newly diagnosed glioblastoma; format: in vivo, human
Experimental: Patients and methods: Fifty-two pts (PS 0-1: 92%, 2: 8%; median age 57 yrs) after biopsy (n=9/17%) or tumor resection (n=43/83%) were treated with standard TMZ/RT (Stupp et al. NEJM 2005). In addition Cilengitide (500 mg i.v., 2×/week) was started one week before TMZ/RT and given throughout for the duration of chemotherapy or until progression. Primary endpoint was progression free survival rate at 6 months (target: 65%). Patients were followed with MRI every 2 months. Histopathologic diagnosis and MRI imaging were independently reviewed, MGMT promotor methylation status was assessed in 45 (86.5%) pts.

[3] = test system: human umbilical vein endothelial cells (HUVECs); test: Serum growth stimulation (proliferation) assay, Alamar Blue, HUVEC; format: cell-based
Experimental: (§1) The effect of integrin alpha V blocker EMD 121974 (Cilengitide) on the viability of human carcinoma cells were tested, in combination with vinorelbine and paclitaxel, respectively, in a cell viability assay, dependent on reduction of Alamar blue dye. Each agent alone could inhibiting carcinoma viability, used together the compounds show an advantagous and preferably synergistic inhibitory effect.
(§2) The methods established and described in detail previously (Goodman and Hahn a; b) were used to measure the effect of combinations of integrin inhibitors and chemotherapeutics on carcinoma cell and human endothelial cell proliferation.
(§3) Points were run in duplicate or in triplicate. Reagent blanks, containing media plus Alamar Blue without cells, were run on each plate. Blank values were subtracted from test values and were routinely 5-10% of uninhibited control values.
In the growth assay Cilengitide was tested in the range of 50 μM to 0.1 nM.
(§4) Chemotherapeutic agents and αv-integrin blockers were serially diluted alone or together (combination therapy). In some assays the chemotherapeutic agent was serially diluted alone or in combination with of alpha-v integrin blocker. Growth inhibition curves were plotted and a shift of the combination therapy curve to lower concentrations in relation to the single agent curves was interpreted as an additional effect, produced by combination versus monotherapy.
(§5) The αv-integrin competitive inhibitor Cilengitide (EMD 121974) was tested alone and in combination with vinorelbine in a serum growth stimulation assay using human carcinoma cells or human umbilical vein endothelial cells (HUVECs). In these assays cells are cultured in serum, or in an endothelial growth stimulation medium (Goodman & Hahn).

[4] = test system: recurrent glioblastoma (GBM); conditions: human, in vivo
Experimental: (§6) Methods: In this multicenter, open-label, randomized, uncontrolled study, pts with GBM and measurable disease that had relapsed after previous therapy with temozolomide and radiotherapy were randomized to receive cilengitide at doses of either 500 mg or 2000 mg i.v., 2×/week, until progression. Histopathology diagnosis and MRI imaging were subject to independent blinded review. The primary endpoint was Progression Free Survival (PFS) at 6 months (mths). Secondary endpoints included response, survival, time to disease progression, safety, tolerability and pharmacokinetics.

various brain tumors = conditions: humans; cited from earlier work
[5] = test system: recurrent glioblastoma (GBM); test: Phase IIa trial of cilengitide single agent therapy in patients with recurrent glioblastoma
Experimental: as §6

NSCLC A549 = test: Proliferation / cell viability assay, Alamar Blue, A549; format: cell-based, human; conditions: for EC50: Homo sapiens, A549, agent alone or + Cilengitide
Experimental: as §1, §2, §3, §4, §5

renal carcinoma (A498) = test: Proliferation / cell viability assay, Alamar Blue, A498; format: cell-based, human; conditions: for EC50: Homo sapiens, A498, agent alone or + Cilengitide (2 μM constant)
Experimental: as §1, §2, §3, §4, §5
Cilengitide concentration is 2μM (constant).

SCCHN (Detroit562) = test: Proliferation assay, Detroit 562; format: cell-based, human; conditions: Cilengitide 2 μM (constant)
[6] = Homo sapiens, HUVEC, agent alone
[7] = Homo sapiens, HUVEC, in combination with 2 μM Cilengitide

## CC(C)[C@H]1C(=O)N[C@@H](CCCN=C(N)N)C(=O)NCC(=O)N[C@@H](CC(=O)O)C(=O)N[C@H](Cc2ccccc2)C(=O)N1C [Cilengitide, cyclo-(Arg-Gly-Asp-DPhe-NMeVal)]
[1]; cilengitide bolus 4 mg/kg i.p. 1 hour pre-irradiation (Rt 25 Gy)
  Days Post Implant: 112 days and 113 days and 130 days and 141 days
[1]; cilengitide bolus 4 mg/kg i.p. 2 hours pre-irradiation (Rt 25 Gy)
  Days Post Implant: 120 days and 147 days and 162 days and 196 days
[1]; cilengitide bolus 4 mg/kg i.p. 4 hours pre-irradiation (Rt 25 Gy)
  Days Post Implant: 238 Days (2×) and 254 Days (2×)
[1]; cilengitide bolus 4 mg/kg i.p. 8 hours pre-irradiation (Rt 25 Gy)
  Days Post Implant: 287 Days (2×) and 257 Days (2×)
[1]; cilengitide 4 mg/kg 1 hour pre-irradiation (Rt 25 Gy)
  Status at Date of Termination: (Sick) Sep. 1, 2005; also recorded: (Sick) Sep. 2, 2005; also recorded: (Sick) Sep. 19, 2005; also recorded: (Sick) Sep. 30, 2005
[1]; cilengitide 4 mg/kg 2 hours pre-irradiation (Rt 25 Gy)
  Status at Date of Termination: (Sick) Aug. 10, 2005; also recorded: (Sick) Sep. 6, 2005; also recorded: (Sick) Sep. 21, 2005; also recorded: (Sick) Oct. 25, 2005
[1]; cilengitide 4 mg/kg 4 hours pre-irradiation (Rt 25 Gy)
  Status at Date of Termination: (Healthy) Nov. 29, 2005; also recorded: (Alive) Dec. 15, 2005
[1]; cilengitide 4 mg/kg 8 hours pre-irradiation (Rt 25 Gy)
  Status at Date of Termination: (Alive) Dec. 15, 2005; also recorded: (Healthy) Nov. 15, 2005
[1]; t-4 and t-8 h groups, cilengitide 4 mg/kg i.p. + 25 Gy
  animals healthy past days post tumor injection: > 230 days
[2]; Cilengitide 500 mg + TMZ/RT, 5/52
  haematological grade 3 and 4 toxicity: neutropenia: 9.6%
[2]; Cilengitide 500 mg + TMZ/RT, 7/52
  haematological grade 3 and 4 toxicity: thrombocytopenia: 13.4%
[2]; Cilengitide 500 mg + TMZ/RT, 28/52
  haematological grade 3 and 4 toxicity: lymphopenia: 53.8%
[2]; Cilengitide 500 mg + TMZ/RT, n=3/52
  Treatment related non-hematologic grade 3 toxicities, patients: 5.7%
[2]; Cilengitide 500 mg i.v. 2x/week + TMZ/RT
  tolerability of the combination with TMZ/RT: well tolerated
[2]; Cilengitide 500 mg i.v. 2x/week added to standard TMZ/RT, 34/52, 95% CI 50.9-78.0%
  patients progression free at 6 months (PFS-6): 65.4%
[2]; patient with a history of sigmoid diverticulosis
  sigmoid perforation (grade 2): One
[2]; subgroup with methylated MGMT promoter (23/52), Cilengitide 500 mg + TMZ/RT, historical control 69%
  PFS-6 rate: 91%
[2]; subgroup with unmethylated MGMT promotor (22/52), Cilengitide 500 mg + TMZ/RT, historical control 40%
  PFS-6 rate: 40.9%
[3]; agent alone
  IC50: 700 nM
[4]
  CTC grade 2 cerebral hemorrhage: One
Various brain tumors
  MTD / side effect profile: no known MTD in humans
[5]; 500 mg arm
  12 mth overall survival (OS) rate: 24.4%
[5]; 500 mg arm, 95% CI 5.2-9.3 mths
  median Overall Survival (mOS): 6.5 mths
[5]; 500 mg or 2000 mg i.v. 2x/week, both arms, n=13/81 pts
  PFS rate at 6 mths: 16.1%
[5]; 2000 mg arm
  12 mth OS rate: 37.5%
[5]; 2000 mg arm, 95% CI 6.3-15.7 mths
  median Overall Survival (mOS): 9.9 mths
[5]; 500 and 2000 mg
  grade 4 therapy related AEs: No grade 4 therapy related AEs were reported
[5]; at 500 mg
  Treatment related NCI CTC grade 3 adverse event: arthralgia/myalgia: 1 patient
  Treatment related NCI CTC grade 3 adverse event: elevated liver enzymes: 1 patient
[5]; at 2000 mg
  Treatment related NCI CTC grade 3 adverse event: weight increase/edema: 1 patient
[5]; both arms, six of 81 pts
  pts still progression-free and on treatment at the time the abstract was issued: 7.4%
[5]; two dose levels (500 and 2000 mg)
  tolerability in single agent therapy: tolerated well

## CC(=O)O[C@H]1C(=O)[C@@]2(C)[C@H]([C@H](OC(=O)c3ccccc3)[C@]3(O)C[C@H](OC(=O)[C@H](O)[C@@H](NC(=O)c4ccccc4)c4ccccc4)C(C)=C1C3(C)C)[C@]1(OC(C)=O)CO[C@@H]1C[C@@H]2O [Paclitaxel]
[3]; [6]
  IC50: 10 nM
[3]; [7]
  IC50: 0.05 nM
NSCLC A549
  EC50: 8 nM
Renal carcinoma (A498)
  EC50: 100 nM

## CCC1=C[C@@H]2CN(C1)Cc1c([nH]c3ccccc13)[C@@](C(=O)OC)(c1cc3c(cc1OC)N(C)[C@H]1[C@@](O)(C(=O)OC)[C@H](OC(C)=O)[C@]4(CC)C=CCN5CC[C@]31[C@@H]54)C2 [Vinorelbine]
[3]; [6]
  IC50: 20 nM
[3]; [7]
  IC50: 0.8 nM
NSCLC A549
  effect of combination with Cilengitide on growth of A549: synergistically enhanced
  EC50: 8 nM
Renal carcinoma (A498); Cilengitide constant at 2 μM
  effect of combination with Cilengitide on A498 cell proliferation: synergistically enhanced
Renal carcinoma (A498)
  EC50: 60 nM
SCCHN (Detroit562)
  effect of combination with Cilengitide on SCCHN (Detroit562) cell proliferation: synergistically enhanced
